Experimental data as given in the supplement of paper PMC11451515.

System: P12-Ichikawa
Assay: cell viability relative to DMSO control; higher = less cytotoxic
Conditions: 48 h
Procedure, shortened: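 Viability is expressed as a percentage of DMSO wells within each plate, and cell-free wells serve as background. Seeding densities in the 1536-well plates (5 μl) were 500 cells/well for NOMO1 or SEM leukemia cells and 1000 cells/well for P12-Ichikawa. Each line was adapted for at least four passages in each medium. Library compounds in DMSO were pin-dosed at 47 μM to 0.79 nM (11 points, threefold), and CellTiter-Glo One luminescence was read after 48 h at 37°C.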

[1] = HPLM + 10% dialyzed FBS, 0.000781 µM
[2] = HPLM + 10% dialyzed FBS, 0.00234 µM
[3] = HPLM + 10% dialyzed FBS, 0.00702 µM
[4] = HPLM + 10% dialyzed FBS, 0.0211 µM
[5] = HPLM + 10% dialyzed FBS, 0.0632 µM
[6] = HPLM + 10% dialyzed FBS, 0.19 µM
[7] = HPLM + 10% dialyzed FBS, 0.569 µM
[8] = HPLM + 10% dialyzed FBS, 1.71 µM
[9] = HPLM + 10% dialyzed FBS, 5.12 µM
[10] = HPLM + 10% dialyzed FBS, 15.4 µM
[11] = HPLM + 10% dialyzed FBS, 46.1 µM
[12] = RPMI 5 mM glucose + 10% FBS, 0.000781 µM
[13] = RPMI 5 mM glucose + 10% FBS, 0.00234 µM
[14] = RPMI 5 mM glucose + 10% FBS, 0.00702 µM
[15] = RPMI 5 mM glucose + 10% FBS, 0.0211 µM
[16] = RPMI 5 mM glucose + 10% FBS, 0.0632 µM
[17] = RPMI 5 mM glucose + 10% FBS, 0.19 µM
[18] = RPMI 5 mM glucose + 10% FBS, 0.569 µM
[19] = RPMI 5 mM glucose + 10% FBS, 1.71 µM
[20] = RPMI 5 mM glucose + 10% FBS, 5.12 µM
[21] = RPMI 5 mM glucose + 10% FBS, 15.4 µM
[22] = RPMI 5 mM glucose + 10% FBS, 46.1 µM
[23] = RPMI 5 mM glucose + 10% dialyzed FBS, 0.000781 µM
[24] = RPMI 5 mM glucose + 10% dialyzed FBS, 0.00234 µM
[25] = RPMI 5 mM glucose + 10% dialyzed FBS, 0.00702 µM
[26] = RPMI 5 mM glucose + 10% dialyzed FBS, 0.0211 µM
[27] = RPMI 5 mM glucose + 10% dialyzed FBS, 0.0632 µM
[28] = RPMI 5 mM glucose + 10% dialyzed FBS, 0.19 µM
[29] = RPMI 5 mM glucose + 10% dialyzed FBS, 0.569 µM
[30] = RPMI 5 mM glucose + 10% dialyzed FBS, 1.71 µM
[31] = RPMI 5 mM glucose + 10% dialyzed FBS, 5.12 µM
[32] = RPMI 5 mM glucose + 10% dialyzed FBS, 15.4 µM
[33] = RPMI 5 mM glucose + 10% dialyzed FBS, 46.1 µM

| SMILES | cell viability [1] [%] | cell viability [2] [%] | cell viability [3] [%] | cell viability [4] [%] | cell viability [5] [%] | cell viability [6] [%] | cell viability [7] [%] | cell viability [8] [%] | cell viability [9] [%] | cell viability [10] [%] | cell viability [11] [%] | cell viability [12] [%] | cell viability [13] [%] | cell viability [14] [%] | cell viability [15] [%] | cell viability [16] [%] | cell viability [17] [%] | cell viability [18] [%] | cell viability [19] [%] | cell viability [20] [%] | cell viability [21] [%] | cell viability [22] [%] | cell viability [23] [%] | cell viability [24] [%] | cell viability [25] [%] | cell viability [26] [%] | cell viability [27] [%] | cell viability [28] [%] | cell viability [29] [%] | cell viability [30] [%] | cell viability [31] [%] | cell viability [32] [%] | cell viability [33] [%] |
| --- | --- | --- | --- | --- | --- | --- | --- | --- | --- | --- | --- | --- | --- | --- | --- | --- | --- | --- | --- | --- | --- | --- | --- | --- | --- | --- | --- | --- | --- | --- | --- | --- | --- |
| NCCCCCC(=O)O | 107 | 109 | 106 | 90.4 | 117 | 105 | 114 | 104 | 102 | 95.3 | 101 | 102 | 101 | 98.6 | 85.2 | 109 | 105 | 110 | 101 | 92.2 | 105 | 88.4 | 98.2 | 112 | 108 | 84.1 | 108 | 97.2 | 105 | 94.7 | 96 | 88.4 | 92.4 |
| NC1CCC(Nc2nc(Nc3ccc(C(=O)N4CCCCC4)cc3)c3ncn(-c4cccc(F)c4)c3n2)CC1 (stereo not drawn) | 110 | 112 | 115 | 117 | 112 | 126 | 120 | 121 | 124 | 137 | 134 | 116 | 119 | 120 | 125 | 120 | 128 | 125 | 124 | 126 | 139 | 123 | 112 | 108 | 120 | 119 | 121 | 123 | 118 | 118 | 129 | 139 | 130 |
| O=C(O)CSCC(=O)NC1CCSC1=O (stereo not drawn) | 108 | 108 | 112 | 120 | 120 | 129 | 110 | 114 | 117 | 115 | 116 | 106 | 108 | 114 | 130 | 123 | 114 | 115 | 116 | 111 | 116 | 118 | 103 | 110 | 114 | 114 | 117 | 116 | 115 | 112 | 106 | 127 | 111 |
| O=C([O-])[C@H](CC(=O)N1C[C@H]2CCCC[C@H]2C1)Cc1ccccc1 | 107 | 118 | 120 | 129 | 123 | 125 | 125 | 119 | 131 | 130 | 134 | 114 | 129 | 122 | 129 | 134 | 131 | 131 | 131 | 137 | 139 | 142 | 113 | 122 | 126 | 134 | 123 | 127 | 129 | 122 | 135 | 131 | 129 |
| CCC(=O)OC1CCC2C3CCC/4=C/C(=O)CC[C@@]4(C)C3CC[C@]12C (stereo partly drawn) | 116 | 120 | 126 | 129 | 126 | 127 | 132 | 128 | 129 | 125 | 117 | – | – | – | – | – | – | – | – | – | – | – | – | – | – | – | – | – | – | – | – | – | – |
| CN(c1nccc(=O)[nH]1)C1CCN(c2nc3ccccc3n2Cc2ccc(F)cc2)CC1 | 108 | 104 | 109 | 110 | 111 | 119 | 118 | 118 | 114 | 112 | 110 | 113 | 110 | 101 | 114 | 124 | 111 | 116 | 109 | 115 | 115 | 123 | 100 | 108 | 109 | 108 | 125 | 113 | 121 | 112 | 123 | 119 | 112 |
| CC(C)C(=O)Nc1ncc(-c2cc(C(F)F)nn2-c2c(Cl)cccc2Cl)s1 | 122 | 122 | 117 | 120 | 126 | 136 | 129 | 131 | 134 | 132 | 63.5 | – | – | – | – | – | – | – | – | – | – | – | – | – | – | – | – | – | – | – | – | – | – |
| COCCCOc1ccnc(C[S+]([O-])c2nc3ccccc3[nH]2)c1C (stereo not drawn) | 107 | 116 | 109 | 105 | 121 | 113 | 123 | 119 | 125 | 113 | 117 | 114 | 109 | 117 | 106 | 112 | 125 | 135 | 130 | 120 | 131 | 119 | 105 | 105 | 114 | 105 | 134 | 132 | 131 | 113 | 115 | 123 | 121 |
| CCCC1=N[N](C)C2=C1\N=C(/NC2=O)C3=CC(=CC=C3OCC)[S+]([O-])(=O)N4CCN(C)CC4 | 82.3 | 92.6 | 89.5 | 88.6 | 90.7 | 89.5 | 88.2 | 80.4 | 86.5 | 84 | 50.7 | 81.4 | 87.3 | 89.2 | 80.9 | 77.5 | 87.6 | 84.1 | 82.1 | 85.2 | 82.4 | 20.7 | 81.4 | 84.5 | 80.8 | 86.6 | 82.5 | 86.8 | 79.7 | 85.1 | 77.8 | 79.2 | 33.1 |
